Measurements as given in patent publication US20240091366A1, “NOVEL ACID-SENSITIVE APTAMER TRIPTOLIDE CONJUGATE AND APPLICATIONS” (priority 2022, published 2024).
Several values for one entry are separate records, joined by “and”; a condition that tells them apart may be missing. Identical values can stand only once.

Tests used:
[1] = system: colon cancer cells HCT116; experiment: In vivo antitumor activity, colon cancer xenograft in nude mice; parameters: species or system mouse; Tumor weight: unit not given here; conditions: HCT116 model, once every 2 days, 8 doses
Source text: (§1) The following are the in vivo activity studies conducted in different tumor-bearing mice:
(§2) A PBS negative control group was set up.

[2] = Body weight during administration, lung cancer model; conditions: mouse, in vivo
Description: (§3) Experimental protocol: Female nude mice were reared for 6-7 weeks under standard environment, lung cancer cell line A549 were suspended in serum-free medium, and each mouse was inoculated with 6*10^6 tumor cells. When the tumor volume reached 50-100 mm^3, the mice were randomly divided into 4 groups, and were injected with aptamer triptolide conjugate, triptolide, and aptamer by tail vein, respectively, 12 mice in each group. A PBS negative control group was set up. […] The drugs were administered once every 2 days for 8 consecutive doses, and the experiment was ended 24 hours after the last dose. At the end of the experiment, the animals were executed by breaking the cervical vertebrae, and the tumors were stripped and weighed to calculate the tumor growth inhibition rate of the drug. The t-test was used to compare the tumor weight, tumor volume, RTV and other indexes of the animals in each group.

[3] = Body weight during administration, colon cancer model; conditions: mouse, in vivo
Description: as §3, with “Female” for “Experimental protocol: Female”, “colon” for “lung”, “cells HCT116” for “cell line A549”, “5*10^6” for “6*10^6”

[4] = system: breast cancer cells MDA-MB-231; experiment: In vivo antitumor activity, breast cancer xenograft in nude mice; parameters: species or system mouse; Tumor weight: unit not given here; conditions: MDA-MB-231 model, once every 2 days, 8 doses
Source text: as §1
The materials used in the experiments were the same as those tested in 5.1 Colon cancer cell lines, differing only in the tumor strains.
as §2

[5] = Body weight during administration, breast cancer model; conditions: mouse, in vivo
Description: as §3, with “Specific experimental” for “Experimental”, “breast” for “lung”, “cells MDA-MB-231” for “cell line A549”

[6] = system: human normal hepatocytes LO2; experiment: MTT assay, cytotoxicity on normal cells; format: cell-based; conditions: 48 h, 48 h, samples 1-3
Description: (§4) The same materials as those in Part II above are not repeated here, in addition to the following: human normal hepatocytes LO2, human embryonic kidney cells HEK293 were purchased from the Shanghai Cell Bank of the Chinese Academy of Sciences and preserved in our laboratory.
(§5) Take the […] LO2 and HEK293 cell lines from the liquid nitrogen tank, place them in a 37° C. water bath, wait for the frozen cells to melt into cell suspension, centrifuge the cells at 1000 r/min for 3 min, discard the supernatant, add 1 ml of fresh complete medium containing 10% fetal bovine serum and 1% double antibody to mix the cells, then add 5 ml of medium, gently and repeatedly blowing the cells with a pipette gun to make them mix well. Then add 5 ml of medium, blow the cells gently and repeatedly with a pipette gun to mix them well, and finally transfer the cell suspension to a […] and label the cell name, cell number, date of resuscitation and the operator's name, and place it in a cell culture incubator for cultivation. (HEK293 cell line was cultured with DMEM medium, LO2 cell line was cultured with RPMI1640 medium)
(§6) Take LO2 and HEK293 cells with good growth status, remove the medium, add 1 ml of sterile PBS to wash, add 1.5 ml of trypsin to digest the cells, about 2 min later the cells become round and fall off, add 1.5 ml of medium to terminate the digestion, transfer it to centrifugal tube, centrifuge at 1000 r/min for 3 min, discard the supernatant, add 1 ml of fresh medium to resuspend, then add fresh medium for 1:3 distribution to other culture dishes, and label the date of transmission and the number of generations. Place in the cell culture incubator for cultivation.
(§7) Take LO2 and HEK293 cells with good growth status, by the same operation as the cell passaging experiment, after cell resuspension, cell counting with hemocyte counting plate, with 3000 cells/well, plant in 96-well plate, after 24 h of cell culture, remove the original medium, add medium containing different concentrations of drugs and continue to cultivate for 48 hours. After 24 h of cell culture, the original medium was removed and the medium containing different concentrations of drugs was added to continue the culture for 48 hours. […] The above steps were repeated three times.

[7] = system: human embryonic kidney cells HEK293; experiment: MTT assay, cytotoxicity on normal cells; format: cell-based; conditions: 48 h, samples 1-3
Description: as §4, §5, §6, §7

CC(C)[C@]12O[C@H]1[C@@H]1O[C@]13[C@]1(O[C@H]1C[C@H]1C4=C(CC[C@@]13C)C(=O)OC4)[C@@H]2O [TP, Triptolide]
RTV ([1]; 10 μM 100 μL tail vein): 23.31 ± 0.31
T/C (%) ([1]; 10 μM 100 μL tail vein): 65.57%
Tumor inhibition rate (%) ([1]; 10 μM 100 μL tail vein): 25.80%
Tumor weight ([1]; 10 μM 100 μL tail vein): 2.31 ± 0.24
RTV ([1]; 30 μM 100 μL tail vein): 16.68 ± 0.19
T/C (%) ([1]; 30 μM 100 μL tail vein): 46.92%
Tumor inhibition rate (%) ([1]; 30 μM 100 μL tail vein): 45.16%
Tumor weight ([1]; 30 μM 100 μL tail vein): 1.76 ± 0.13
RTV ([1]; 50 μM 100 μL tail vein): 10.09 ± 0.28
T/C (%) ([1]; 50 μM 100 μL tail vein): 28.38%
Tumor inhibition rate (%) ([1]; 50 μM 100 μL tail vein): 64.51%
Tumor weight ([1]; 50 μM 100 μL tail vein): 1.11 ± 0.25
body weights of mice [2]: basically maintained in the tolerable range of animal toxicity and side-effects
body weights of mice [3]: basically maintained in the tolerable range of animal toxicity and side-effects
RTV ([4]; 10 μM tail vein): 27.18 ± 47
T/C (%) ([4]; 10 μM tail vein): 65.57%
Tumor inhibition rate (%) ([4]; 10 μM tail vein): 31.78%
Tumor weight ([4]; 10 μM tail vein): 2.34 ± 0.39
RTV ([4]; 30 μM tail vein): 16.44 ± 31
T/C (%) ([4]; 30 μM tail vein): 39.66%
Tumor inhibition rate (%) ([4]; 30 μM tail vein): 48.40%
Tumor weight ([4]; 30 μM tail vein): 1.77 ± 0.51
RTV ([4]; 50 μM tail vein): 12.89 ± 55
T/C (%) ([4]; 50 μM tail vein): 31.10%
Tumor inhibition rate (%) ([4]; 50 μM tail vein): 74.05%
Tumor weight ([4]; 50 μM tail vein): 0.89 ± 0.08
body weights of mice [5]: basically maintained in the tolerable range of animal toxicity and side-effects
inhibition at 0.0031 µM ([6]; Homo sapiens, Hepatocyte, LO2, 3.1 nM, read-out: cell proliferation inhibition rate): 21.4%
inhibition at 0.0063 µM ([6]; Homo sapiens, Hepatocyte, LO2, 6.3 nM, read-out: cell proliferation inhibition rate): 32%
inhibition at 0.0125 µM ([6]; Homo sapiens, Hepatocyte, LO2, 12.5 nM, read-out: cell proliferation inhibition rate): 66.4%
inhibition at 0.025 µM ([6]; Homo sapiens, Hepatocyte, LO2, 25.0 nM, read-out: cell proliferation inhibition rate): 74.1%
inhibition at 0.05 µM ([6]; Homo sapiens, Hepatocyte, LO2, 50.0 nM, read-out: cell proliferation inhibition rate): 88.7%
inhibition at 0.1 µM ([6]; Homo sapiens, Hepatocyte, LO2, 100.0 nM, read-out: cell proliferation inhibition rate): 96.3%
inhibition at 0.2 µM ([6]; Homo sapiens, Hepatocyte, LO2, 200.0 nM, read-out: cell proliferation inhibition rate): 94%
cell proliferation inhibition rate ([6]; LO2, 3.1 nM, 0.0031 µM): 23.3551 and 17.9111
cell proliferation inhibition rate ([6]; LO2, 6.3 nM, 0.0063 µM): 40.8401 and 42.6158
cell proliferation inhibition rate ([6]; LO2, 12.5 nM, 0.0125 µM): 59.2076 and 65.5783
cell proliferation inhibition rate ([6]; LO2, 25.0 nM, 0.025 µM): 73.3084 and 73.3954
cell proliferation inhibition rate ([6]; LO2, 50.0 nM, 0.05 µM): 87.4474 and 84.6990
cell proliferation inhibition rate ([6]; LO2, 100.0 nM, 0.1 µM): 97.7552 and 82.0308
cell proliferation inhibition rate ([6]; LO2, 200.0 nM, 0.2 µM): 99.8060 and 96.6312
cell proliferation inhibition rate ([7]; HEK293, 3.1 nM, 0.0031 µM): 30.4489 and 32.7054
cell proliferation inhibition rate ([7]; HEK293, 6.3 nM, 0.0063 µM): 53.1149 and 51.3265
cell proliferation inhibition rate ([7]; HEK293, 12.5 nM, 0.0125 µM): 70.4830 and 71.1686
cell proliferation inhibition rate ([7]; HEK293, 25.0 nM, 0.025 µM): 73.0686 and 75.7495
cell proliferation inhibition rate ([7]; HEK293, 50.0 nM, 0.05 µM): 81.0372
cell proliferation inhibition rate ([7]; HEK293, 100.0 nM, 0.1 µM): 94.3972 and 99.2908
cell proliferation inhibition rate ([7]; HEK293, 200.0 nM, 0.2 µM): 95.3901 and 100.6383
inhibition at 0.0031 µM ([7]; Homo sapiens, HEK293, 48 h, HEK293, 3.1 nM, read-out: cell proliferation inhibition rate): 35.1%
inhibition at 0.0063 µM ([7]; Homo sapiens, HEK293, 48 h, HEK293, 6.3 nM, read-out: cell proliferation inhibition rate): 59.9%
inhibition at 0.0125 µM ([7]; Homo sapiens, HEK293, 48 h, HEK293, 12.5 nM, read-out: cell proliferation inhibition rate): 69.3%
inhibition at 0.025 µM ([7]; Homo sapiens, HEK293, 48 h, HEK293, 25.0 nM, read-out: cell proliferation inhibition rate): 79.5%
inhibition at 0.05 µM ([7]; Homo sapiens, HEK293, 48 h, HEK293, 50.0 nM, read-out: cell proliferation inhibition rate): 89.5%
inhibition at 0.1 µM ([7]; Homo sapiens, HEK293, 48 h, HEK293, 100.0 nM, read-out: cell proliferation inhibition rate): 99.9%
inhibition at 0.2 µM ([7]; Homo sapiens, HEK293, 48 h, HEK293, 200.0 nM, read-out: cell proliferation inhibition rate): 98.3%
